Publication PMC11845477, “Exploring the principles behind antibiotics with limited resistance” (Nature Communications, 2025)
Where a SMILES comes first, the peptide text is derived from it. Bridges are numbered along the chain shown (N, C = ends). [ ]: non-standard residue; d: D form. The star is where a group is joined. X1 = NC[C@@H](CC(=O)*)c1cccc(Cl)c1; Dab = NCC[C@H](N)C(=O)O; Dap = NC[C@H](N)C(=O)O

Tests used:
[1] = test system: K. pneumoniae ATCC 10031 (SEN) and K. pneumoniae ATCC 700603 (MDR); assay: microbe, parasite or virus in culture; type: cell-based, Klebsiella pneumoniae; details: for MIC: across three biological replicates
Method: This study focused on multiple bacterial strains, as follows. For the FoR and ALE experiments, 2 strains per species were chosen: E. coli ATCC 25922, K. pneumoniae ATCC 10031, A. baumannii ATCC 17978, and P. aeruginosa ATCC BAA-3107 as sensitive (SEN) strains, and E. coli NCTC13846, K. pneumoniae ATCC 700603, A. baumannii ATCC BAA-1605 and P. aeruginosa LESB58 as multi-drug resistant (MDR) strains. Functional metagenomic screens were performed with E. coli ATCC 25922 and K. pneumoniae ATCC 10031 strains. To determine the dose-kill properties of the different antibiotics, an E. coli strain (ATCC 25922) expressing a yellow fluorescent protein (pZS2R, YFP, CHL^R) and a red fluorescent protein (pZS2R, mCherry, CHL^R) was used.
Unless otherwise indicated, cation-adjusted Mueller-Hinton Broth 2 (MHB, Millipore) medium was used throughout the study, except for SCH79797 (SCH).
(§1) A robotic liquid handling system was used to automatically prepare a 11 to 16-step serial dilution in 384-well microtiter plates (Greiner). A final concentration of 5 × 10^5 bacterial cells per mL were inoculated into each well containing 60 µL MHB medium. Bacterial cultures were incubated at 37 °C with continuous shaking (Infors shaker, 900 rpm with 3 mm throw) for 18 hours (2 replicates from each). Cell growth was monitored by measuring the optical density (OD600 values, using Biotek Synergy microplate reader). MIC was defined as the antibiotic concentration of complete growth inhibition (i.e., OD600 < 0.05). Relative MIC was calculated as follows:1 relativeMIC=MICevolved/MICancestor

[2] = test system: K. pneumoniae ATCC 10031 (SEN) and K. pneumoniae ATCC 700603 (MDR); assay: Frequency-of-resistance (FoR) assay, relative MIC of mutants; type: cell-based, Klebsiella pneumoniae
Method: (§2) The susceptibility of antibiotics to resistance development was evaluated in two strains of each bacterial species: a multidrug-resistant strain and an antibiotic-sensitive strain of Escherichia coli, Klebsiella pneumoniae, Acinetobacter baumannii, and Pseudomonas aeruginosa. To explore first-step resistance, we previously used a standard protocol for spontaneous frequency-of-resistance analysis (FoR assay) at multiple concentrations of each antibiotic[10],[28],[31]–[33]. […] For all other combinations, approximately 10^10 bacterial cells were exposed to one of each antibiotic on agar plates for two days at concentrations where the given strain is susceptible. We examined resistance levels by contrasting the minimum inhibitory concentration (MICs) of the mutated strains to the original wild-type bacterial strain (i.e., relative MIC).
(§3) To estimate the frequency of spontaneous mutations that confer resistance in a microbial population, we conducted a frequency of resistance (FoR) assay following established protocols[10],[31]–[33]. […] Prior to plating, bacteria were grown overnight in MHB medium at 37 °C and 250 RPM, then centrifuged and washed in MHB. All experiments were performed in triplicate, and plates were incubated at 37 °C for 48 hours. Total colony-forming units (CFUs) were determined by plating appropriate dilutions onto antibiotic-free MHB agar. Resistance frequencies were calculated by dividing the number of resistant colonies by the initial viable cell count. From the plates with the highest antibiotic concentration, ten colonies were selected for MIC determination and whole-genome sequencing.
as §1, with “relativeMIC=MICevolved/MICancestor […]” for “relativeMIC=MICevolved/MICancestor”
(§4) Supplementary Figure 3. Resistance levels following the frequency of resistance assay across bacterial strains. The level of resistance was measured as the fold change in relative MIC between evolved and ancestral strains. Data are grouped by bacterial strain (A. baumannii (AB), E. coli (EC), K. pneumoniae (KP), and P. aeruginosa (PA)) and categorized as either multidrug-resistant (MDR) or sensitive (SEN). Each data point represents a laboratory evolved line, and boxplots show the median, first and third quartiles, with whiskers indicating the 5th and 95th percentiles. […]
(§5) analysis was performed using two-sided Dunn’s post-hoc test with Benjamini-Hochberg correction for multiple comparisons (**/ * indicates p < 0.01/ 0.05). For detailed information on antibiotic and bacterial species, see Supplementary Table 1. For mode of action groups, refer to Table 1. Source data are provided as a Source Data file.

[3] = test system: A. baumannii ATCC 17978 (SEN) and A. baumannii ATCC BAA-1605 (MDR); assay: as above; type: cell-based, Acinetobacter baumannii
Method: as §2, §3
as §1, with “relativeMIC=MICevolved/MICancestor […]” for “relativeMIC=MICevolved/MICancestor”
as §4, §5

[4] = Klebsiella pneumoniae ATCC 10031 (KP-SEN), ancestor strain, sheet fig 2a
[5] = Klebsiella pneumoniae ATCC 10031 (KP-SEN)
[6] = Klebsiella pneumoniae ATCC 700603 (KP-MDR)
[7] = ancestor KP-SEN (Klebsiella pneumoniae ATCC 10031)
[8] = FoR assay, Klebsiella pneumoniae ATCC 10031 (KP-SEN), evolved line 1
[9] = FoR assay, Klebsiella pneumoniae ATCC 10031 (KP-SEN), evolved line 2
[10] = FoR assay, Klebsiella pneumoniae ATCC 10031 (KP-SEN), evolved line 3
[11] = Klebsiella pneumoniae ATCC 10031 (KP-SEN), evolved line 1
[12] = Klebsiella pneumoniae ATCC 10031 (KP-SEN), evolved line 2
[13] = Klebsiella pneumoniae ATCC 10031 (KP-SEN), evolved line 3
[14] = Klebsiella pneumoniae ATCC 10031 (KP-SEN), evolved line 1 versus ancestor
[15] = Klebsiella pneumoniae ATCC 10031 (KP-SEN), evolved line 2 versus ancestor
[16] = Klebsiella pneumoniae ATCC 10031 (KP-SEN), evolved line 3 versus ancestor
[17] = Acinetobacter baumannii ATCC 17978 (AB-SEN), evolved line 1
[18] = Acinetobacter baumannii ATCC 17978 (AB-SEN), evolved line 2
[19] = Acinetobacter baumannii ATCC 17978 (AB-SEN), evolved line 3
[20] = Acinetobacter baumannii ATCC 17978 (AB-SEN), evolved line 1 versus ancestor
[21] = Acinetobacter baumannii ATCC 17978 (AB-SEN), evolved line 2 versus ancestor
[22] = Acinetobacter baumannii ATCC 17978 (AB-SEN), evolved line 3 versus ancestor
[23] = Acinetobacter baumannii ATCC BAA 1605 (AB-MDR), evolved line 2
[24] = Acinetobacter baumannii ATCC BAA 1605 (AB-MDR), evolved line 1
[25] = Acinetobacter baumannii ATCC BAA 1605 (AB-MDR), evolved line 1 versus ancestor
[26] = Acinetobacter baumannii ATCC BAA 1605 (AB-MDR), evolved line 2 versus ancestor
[27] = Acinetobacter baumannii ATCC BAA 1605 (AB-MDR), evolved line 3
[28] = Acinetobacter baumannii ATCC BAA 1605 (AB-MDR), evolved line 3 versus ancestor
[29] = FoR assay, Acinetobacter baumannii ATCC 17978 (AB-SEN), evolved line 1
[30] = FoR assay, Acinetobacter baumannii ATCC 17978 (AB-SEN), evolved line 2
[31] = FoR assay, Acinetobacter baumannii ATCC 17978 (AB-SEN), evolved line 3
[32] = FoR assay, Acinetobacter baumannii ATCC BAA 1605 (AB-MDR), evolved line 1
[33] = FoR assay, Acinetobacter baumannii ATCC BAA 1605 (AB-MDR), evolved line 2
[34] = FoR assay, Acinetobacter baumannii ATCC BAA 1605 (AB-MDR), evolved line 3
[35] = Klebsiella pneumoniae ATCC 700603 (KP-MDR), ancestor strain, sheet fig 2a
[36] = ancestor KP-MDR (Klebsiella pneumoniae ATCC 700603)
[37] = Klebsiella pneumoniae ATCC 700603 (KP-MDR), evolved line 1
[38] = Klebsiella pneumoniae ATCC 700603 (KP-MDR), evolved line 2
[39] = Klebsiella pneumoniae ATCC 700603 (KP-MDR), evolved line 3
[40] = Klebsiella pneumoniae ATCC 700603 (KP-MDR), evolved line 1 versus ancestor
[41] = Klebsiella pneumoniae ATCC 700603 (KP-MDR), evolved line 2 versus ancestor
[42] = Klebsiella pneumoniae ATCC 700603 (KP-MDR), evolved line 3 versus ancestor

CC(C)c1ccc(Cn2ccc3c4c(N)nc(NC5CC5)nc4ccc32)cc1 [SCH79797]
4 µg/mL: MIC of ancestor [1, 4] | MIC [1, 5] | MIC of ancestor [1, 7] | MIC of evolved line [2, 11] | MIC of evolved line [2, 12] | MIC of evolved line [2, 13] | MIC of evolved line [3, 23] | MIC of evolved line [3, 27]
2 µg/mL: MIC of evolved line [3, 24]
32 µg/mL: MIC [1, 6]
8 µg/mL: MIC of evolved line [3, 17] | MIC of evolved line [3, 18] | MIC of evolved line [3, 19]
2: Relative MIC [3, 20] | Relative MIC [3, 21] | Relative MIC [3, 22] | Relative MIC [3, 29] | Relative MIC [3, 30] | Relative MIC [3, 31]
1: Relative MIC [2, 8] | Relative MIC [2, 9] | Relative MIC [2, 10] | Relative MIC [2, 14] | Relative MIC [2, 15] | Relative MIC [2, 16] | Relative MIC [3, 25] | Relative MIC [3, 26] | Relative MIC [3, 28] | Relative MIC [3, 32] | Relative MIC [3, 33] | Relative MIC [3, 34]

CC(C)C[C@@H]1NC(=O)[C@@H](Cc2ccccc2)NC(=O)[C@H](CCN)NC(=O)[C@@H](NC(=O)[C@H](CN)NC(=O)[C@@H](NC(=O)C[C@H](CN)c2cccc(Cl)c2)[C@@H](C)O)CCNC(=O)[C@H]([C@@H](C)O)NC(=O)[C@H](CCN)NC(=O)[C@H](CCN)NC1=O [SPR206] (X1-T[Dap][Dab][Dab][dF]L[Dab][Dab]T; lactam 3-C (inferred); N-terminus assumed)
1: Relative MIC [2, 9] | Relative MIC [2, 15] | Relative MIC [3, 20] | Relative MIC [3, 21] | Relative MIC [3, 22] | Relative MIC [3, 29] | Relative MIC [3, 30] | Relative MIC [3, 31]
32 µg/mL: MIC of evolved line [2, 11] | MIC of evolved line [2, 37] | MIC of evolved line [2, 38] | MIC of evolved line [2, 39]
0.5 µg/mL: MIC of ancestor [1, 4] | MIC [1, 5] | MIC of ancestor [1, 35] | MIC [1, 6] | MIC of ancestor [1, 36] | MIC of ancestor [1, 7]
64: Relative MIC [2, 8] | Relative MIC ([2]; FoR assay, Klebsiella pneumoniae ATCC 700603 (KP-MDR), evolved line 1) | Relative MIC ([2]; FoR assay, Klebsiella pneumoniae ATCC 700603 (KP-MDR), evolved line 2) | Relative MIC ([2]; FoR assay, Klebsiella pneumoniae ATCC 700603 (KP-MDR), evolved line 3) | Relative MIC [2, 14] | Relative MIC [2, 40] | Relative MIC [2, 41] | Relative MIC [2, 42]
0.25 µg/mL: MIC of evolved line [2, 12] | MIC of evolved line [3, 23] | MIC of evolved line [3, 24] | MIC of evolved line [3, 27]
2: Relative MIC [3, 25] | Relative MIC [3, 26] | Relative MIC [3, 28] | Relative MIC [3, 32] | Relative MIC [3, 33] | Relative MIC [3, 34]
256: Relative MIC [2, 10] | Relative MIC [2, 16]
0.125 µg/mL: MIC of evolved line [3, 17] | MIC of evolved line [3, 18] | MIC of evolved line [3, 19]
128 µg/mL: MIC of evolved line [2, 13]

C[C@@H](O)[C@H]1C(=O)N2C(C(=O)O)=C(S[C@H]3CC[S@@+]([O-])C3)S[C@H]12 [Sulopenem]
4: Relative MIC [3, 20] | Relative MIC [3, 21] | Relative MIC [3, 22]
16: Relative MIC [2, 42]
0.5 µg/mL: MIC of ancestor [1, 35] | MIC [1, 6] | MIC of ancestor [1, 36]
8 µg/mL: MIC of evolved line [2, 39]
1: Relative MIC [2, 14] | Relative MIC [2, 15] | Relative MIC [2, 16]
4 µg/mL: MIC of evolved line [2, 37] | MIC of evolved line [2, 38] | MIC of evolved line [3, 17] | MIC of evolved line [3, 18] | MIC of evolved line [3, 19]
8: Relative MIC [2, 40] | Relative MIC [2, 41]
0.03125 µg/mL: MIC [1, 5]
0.0312 µg/mL: MIC of ancestor [1, 4] | MIC of ancestor [1, 7] | MIC of evolved line [2, 11] | MIC of evolved line [2, 12] | MIC of evolved line [2, 13]

polymyxin-B
32 µg/mL: MIC of evolved line [2, 39]
0.5 µg/mL: MIC of evolved line [2, 37] | MIC of evolved line [3, 17] | MIC of evolved line [3, 18] | MIC of evolved line [3, 19]
1 µg/mL: MIC of ancestor ([1]; Klebsiella pneumoniae ATCC 700603 (KP-MDR), ancestor) | MIC of ancestor [1, 35]
16 µg/mL: MIC of evolved line [3, 27]
4 µg/mL: MIC of evolved line [2, 38]
2 µg/mL: MIC of ancestor [1, 4] | MIC of ancestor [1, 7] | MIC of evolved line [2, 11] | MIC of evolved line [2, 12] | MIC of evolved line [2, 13]
